#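 Compound exposure: 48 hours, 5 concentrations, 96-well plates. GI50 = concentration required for 50% inhibition of growth.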 The source made the active and inactive calls. Cut-off read from the data, not from the text of the source: active = GI50 up to about 1.1 µM and inactive = higher.
# Tests used:
# Experiment in all cases: DTP human tumour cell line panel, 48 h
# 786-0 = system: 786-0
# ACHN = system: ACHN
# CAKI-1 = system: CAKI-1
# CCRF-CEM = system: CCRF-CEM
# COLO 205 = system: COLO 205
# DU-145 = system: DU-145
# EKVX = system: EKVX
# HCC 2998 = system: HCC 2998
# HCT-116 = system: HCT-116
# HCT-15 = system: HCT-15
# HL-60 = system: HL-60
# HOP-62 = system: HOP-62
# HOP-92 = system: HOP-92
# HT-29 = system: HT-29
# Hs-578T = system: Hs-578T
# IGROV-1 = system: IGROV-1
# K562 = system: K562
# KM12 = system: KM12
# LOX IMVI = system: LOX IMVI
# M14 = system: M14
# MCF7 = system: MCF7
# MDA-MB-231 = system: MDA-MB-231
# MDA-MB-435 = system: MDA-MB-435
# MDA-N = system: MDA-N
# MOLT-4 = system: MOLT-4
# Malme-3M = system: Malme-3M
# NCI-H226 = system: NCI-H226
# NCI-H23 = system: NCI-H23
# NCI-H460 = system: NCI-H460
# NCI-H522 = system: NCI-H522
# NCI/ADR-RES = system: NCI/ADR-RES
# OVCAR-3 = system: OVCAR-3
# OVCAR-4 = system: OVCAR-4
# OVCAR-5 = system: OVCAR-5
# OVCAR-8 = system: OVCAR-8
# PC-3 = system: PC-3
# RPMI-8226 = system: RPMI-8226
# RXF 393 = system: RXF 393
# SF-268 = system: SF-268
# SF-295 = system: SF-295
# SF-539 = system: SF-539
# SK-MEL-28 = system: SK-MEL-28
# SK-MEL-5 = system: SK-MEL-5
# SK-OV-3 = system: SK-OV-3
# SN12C = system: SN12C
# SNB-19 = system: SNB-19
# SR = system: SR
# SW-620 = system: SW-620
# T47D = system: T47D
# TK-10 = system: TK-10
# U-251 = system: U-251
# UACC-257 = system: UACC-257
# UACC-62 = system: UACC-62
# A498 = system: A498
# A549 = system: A549
# SK-MEL-2 = system: SK-MEL-2
# SNB-75 = system: SNB-75
# UO-31 = system: UO-31
structure (smiles),measurement,setting,value
O=C1Oc2cc3c(c4cccc1c24)O[C@H](c1ccccc1)[C@@H](c1ccccc1)[C@@H]3c1ccc(Cl)cc1,GI50,786-0,17.6 µM (inactive)
same,GI50,ACHN,26.7 µM (inactive)
same,GI50,CAKI-1,> 100 µM (inactive)
same,GI50,CCRF-CEM,49 µM (inactive)
same,GI50,COLO 205,> 100 µM (inactive)
same,GI50,DU-145,> 100 µM (inactive)
same,GI50,EKVX,> 100 µM (inactive)
same,GI50,HCC 2998,> 100 µM (inactive)
same,GI50,HCT-116,31.8 µM (inactive)
same,GI50,HCT-15,> 100 µM
same,GI50,HL-60,> 100 µM (inactive)
same,GI50,HOP-62,18.2 µM (inactive)
same,GI50,HOP-92,28.8 µM (inactive)
same,GI50,HT-29,> 100 µM (inactive)
same,GI50,Hs-578T,88.7 µM (inactive)
same,GI50,IGROV-1,22.8 µM (inactive)
same,GI50,K562,46.1 µM (inactive)
same,GI50,KM12,> 100 µM (inactive)
same,GI50,LOX IMVI,68.4 µM (inactive)
same,GI50,M14,40.1 µM (inactive)
same,GI50,MCF7,> 100 µM (inactive)
same,GI50,MDA-MB-231,18.3 µM (inactive)
same,GI50,MDA-MB-435,76.7 µM (inactive)
same,GI50,MDA-N,> 100 µM (inactive)
same,GI50,MOLT-4,19.6 µM (inactive)
same,GI50,Malme-3M,37.3 µM (inactive)
same,GI50,NCI-H226,76 µM (inactive)
same,GI50,NCI-H23,34 µM (inactive)
same,GI50,NCI-H460,> 100 µM (inactive)
same,GI50,NCI-H522,38 µM (inactive)
same,GI50,NCI/ADR-RES,> 100 µM (inactive)
same,GI50,OVCAR-3,36.8 µM (inactive)
same,GI50,OVCAR-4,82 µM (inactive)
same,GI50,OVCAR-5,> 100 µM (inactive)
same,GI50,OVCAR-8,16.2 µM (inactive)
same,GI50,PC-3,> 100 µM (inactive)
same,GI50,RPMI-8226,58.1 µM (inactive)
same,GI50,RXF 393,17.4 µM (inactive)
same,GI50,SF-268,31.9 µM (inactive)
same,GI50,SF-295,42.7 µM (inactive)
same,GI50,SF-539,33.7 µM (inactive)
same,GI50,SK-MEL-28,> 100 µM (inactive)
same,GI50,SK-MEL-5,> 100 µM (inactive)
same,GI50,SK-OV-3,45.2 µM (inactive)
same,GI50,SN12C,79.4 µM (inactive)
same,GI50,SNB-19,29.4 µM (inactive)
same,GI50,SR,18.8 µM (inactive)
same,GI50,SW-620,> 100 µM (inactive)
same,GI50,T47D,58.6 µM (inactive)
same,GI50,TK-10,39.3 µM (inactive)
same,GI50,U-251,19.6 µM (inactive)
same,GI50,UACC-257,> 100 µM (inactive)
same,GI50,UACC-62,19.3 µM (inactive)
Cc1cc(O)cc(O)c1C(=O)O[C@]1(C)C(=O)C=C2C=C(/C=C/C(=O)O)OC=C2C1=O,GI50,786-0,> 100 µM (inactive)
same,GI50,A498,> 100 µM (inactive)
same,GI50,A549,> 100 µM (inactive)
same,GI50,ACHN,> 100 µM (inactive)
same,GI50,CAKI-1,> 100 µM (inactive)
same,GI50,CCRF-CEM,38.5 µM (inactive)
same,GI50,COLO 205,> 100 µM (inactive)
same,GI50,DU-145,> 100 µM (inactive)
same,GI50,EKVX,> 100 µM (inactive)
same,GI50,HCC 2998,> 100 µM (inactive)
same,GI50,HCT-116,76.9 µM (inactive)
same,GI50,HCT-15,> 100 µM
same,GI50,HL-60,31.9 µM (inactive)
same,GI50,HOP-62,> 100 µM (inactive)
same,GI50,HOP-92,31.8 µM (inactive)
same,GI50,HT-29,94.4 µM (inactive)
same,GI50,Hs-578T,> 100 µM (inactive)
same,GI50,IGROV-1,> 100 µM (inactive)
same,GI50,K562,> 100 µM (inactive)
same,GI50,KM12,41.7 µM (inactive)
same,GI50,LOX IMVI,37.2 µM (inactive)
same,GI50,M14,> 100 µM (inactive)
same,GI50,MCF7,47.8 µM (inactive)
same,GI50,MDA-MB-231,> 100 µM (inactive)
same,GI50,MDA-MB-435,> 100 µM (inactive)
same,GI50,MDA-N,> 100 µM (inactive)
same,GI50,MOLT-4,60.8 µM (inactive)
same,GI50,Malme-3M,67.3 µM (inactive)
same,GI50,NCI-H226,> 100 µM (inactive)
same,GI50,NCI-H23,> 100 µM (inactive)
same,GI50,NCI-H460,> 100 µM (inactive)
same,GI50,NCI/ADR-RES,> 100 µM (inactive)
same,GI50,OVCAR-3,> 100 µM (inactive)
same,GI50,OVCAR-4,> 100 µM (inactive)
same,GI50,OVCAR-5,> 100 µM (inactive)
same,GI50,OVCAR-8,> 100 µM (inactive)
same,GI50,PC-3,> 100 µM (inactive)
same,GI50,RPMI-8226,> 100 µM (inactive)
same,GI50,RXF 393,> 100 µM (inactive)
same,GI50,SF-268,> 100 µM (inactive)
same,GI50,SF-295,> 100 µM (inactive)
same,GI50,SF-539,> 100 µM (inactive)
same,GI50,SK-MEL-28,> 100 µM (inactive)
same,GI50,SK-MEL-2,> 100 µM (inactive)
same,GI50,SK-MEL-5,> 100 µM (inactive)
same,GI50,SK-OV-3,> 100 µM (inactive)
same,GI50,SN12C,> 100 µM (inactive)
same,GI50,SNB-19,> 100 µM (inactive)
same,GI50,SNB-75,0.76 µM (active)
same,GI50,SR,42.2 µM (inactive)
same,GI50,SW-620,58.3 µM (inactive)
same,GI50,T47D,> 100 µM (inactive)
same,GI50,TK-10,45.6 µM (inactive)
same,GI50,UACC-257,> 100 µM (inactive)
same,GI50,UACC-62,> 100 µM (inactive)
same,GI50,UO-31,> 100 µM (inactive)
CCOC1=NC(O)c2cccn2-c2sccc21 (stereo not drawn),GI50,786-0,> 100 µM (inactive)
same,GI50,A498,56.8 µM (inactive)
same,GI50,A549,43.2 µM (inactive)
same,GI50,ACHN,> 100 µM (inactive)
same,GI50,CAKI-1,> 100 µM (inactive)
same,GI50,COLO 205,7.73 µM (inactive)
same,GI50,DU-145,> 100 µM (inactive)
same,GI50,HCC 2998,> 100 µM (inactive)
same,GI50,HCT-116,> 100 µM (inactive)
same,GI50,HCT-15,> 100 µM
same,GI50,HOP-62,> 100 µM (inactive)
same,GI50,HOP-92,> 100 µM (inactive)
same,GI50,HT-29,> 100 µM (inactive)
same,GI50,K562,57.8 µM (inactive)
same,GI50,KM12,> 100 µM (inactive)
same,GI50,M14,> 100 µM (inactive)
same,GI50,MCF7,> 100 µM (inactive)
same,GI50,MDA-MB-231,> 100 µM (inactive)
same,GI50,MDA-MB-435,> 100 µM (inactive)
same,GI50,MDA-N,> 100 µM (inactive)
same,GI50,MOLT-4,51.6 µM (inactive)
same,GI50,Malme-3M,> 100 µM (inactive)
same,GI50,NCI-H23,> 100 µM (inactive)
same,GI50,NCI-H460,> 100 µM (inactive)
same,GI50,NCI-H522,> 100 µM (inactive)
same,GI50,NCI/ADR-RES,> 100 µM (inactive)
same,GI50,OVCAR-3,> 100 µM (inactive)
same,GI50,OVCAR-4,> 100 µM (inactive)
same,GI50,OVCAR-5,> 100 µM (inactive)
same,GI50,OVCAR-8,> 100 µM (inactive)
same,GI50,PC-3,> 100 µM (inactive)
same,GI50,RPMI-8226,26.7 µM (inactive)
same,GI50,RXF 393,> 100 µM (inactive)
same,GI50,SF-268,> 100 µM (inactive)
same,GI50,SF-295,> 100 µM (inactive)
same,GI50,SF-539,> 100 µM (inactive)
same,GI50,SK-MEL-28,> 100 µM (inactive)
same,GI50,SK-MEL-2,> 100 µM (inactive)
same,GI50,SK-MEL-5,96.4 µM (inactive)
same,GI50,SK-OV-3,93.3 µM (inactive)
same,GI50,SN12C,> 100 µM (inactive)
same,GI50,SNB-19,> 100 µM (inactive)
same,GI50,SR,34.2 µM (inactive)
same,GI50,SW-620,> 100 µM (inactive)
same,GI50,T47D,> 100 µM (inactive)
same,GI50,TK-10,82.4 µM (inactive)
same,GI50,U-251,> 100 µM (inactive)
same,GI50,UACC-62,> 100 µM (inactive)
same,GI50,UO-31,> 100 µM (inactive)

# From ChEMBL document CHEMBL1201862, “PubChem BioAssay data set” (2004)
